US20240041042A1, “1-(PYRIDYL)-5-AZINYLPYRAZOLE DERIVATIVES, AND THEIR USE FOR CONTROL OF UNDESIRED PLANT GROWTH” (Bayer Aktiengesellschaft, priority 2020, published 2024)
Read-outs that look alike come from different tables or passages of the source.

What was measured:
Format in all cases: in vivo
Viola tricolor (VIOTR) [1] = assay: Post-emergence herbicidal action against VIOTR
Method in brief: (§1)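 Doses of 320 g/ha or lower, suffixes a, b and c marking different dosages, were applied post-emergence at the one-leaf stage in 600 l/ha water with 0.5% additive. Damage was assessed visually after about 3 weeks in the greenhouse.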

Oryza sativa (ORYSA) = conditions: crop plant compatibility
Method in brief: (§2)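 Greenhouse crops in sandy loam sprayed post-emergence at the one-leaf stage, 2–3 weeks after sowing, with WP or EC formulations in water plus 0.5% additive at 600 l/ha. Damage rated visually about 3 weeks later versus untreated controls (0% = like control, 100% = dead); suffixes a–c denote different doses.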

Zea mays (ZEAMX) [2] = conditions: 20 g/ha, ZEAMX, effect in comparison to untreated controls
Method in brief: as §2

Setaria viridis (SETVI) [3] = assay: Post-emergence herbicidal action against SETVI
Method in brief: as §1

Setaria viridis (SETVI) [4] = assay: Pre-emergence herbicidal action against SETVI
Method in brief: (§3)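 Greenhouse pot trial: seeds sown, soil-covered, sprayed before emergence with compound in water (0.5% additive; 600 l/ha; ≤320 g/ha). Scoring visual, ~3 weeks, 0–100% scale vs untreated.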

[5] = test system: Pharbitis purpurea (PHBPU); assay: Pre-emergence herbicidal action against PHBPU
Method in brief: as §3

[6] = test system: Alopecurus myosuroides (ALOMY); assay: Post-emergence herbicidal action against ALOMY; conditions: 80 g/ha, visual rating about 3 weeks after treatment vs untreated controls (100% = plants have died, 0% = like control plants)
Method in brief: as §1

[7] = test system: Digitaria sanguinalis (DIGSA); assay: Pre-emergence herbicidal action against DIGSA
Method in brief: as §3

[8] = test system: Digitaria sanguinalis (DIGSA); assay: Post-emergence herbicidal action against DIGSA; conditions: visual rating about 3 weeks after treatment
Method in brief: as §1

[9] = test system: Amaranthus retroflexus (AMARE); assay: Pre-emergence herbicidal action against AMARE; conditions: visual scoring after about 3 weeks vs untreated controls
Method in brief: as §3

Lolium rigidum (LOLRI) [10] = assay: Pre-emergence herbicidal action against LOLRI
Method in brief: as §3

[11] = test system: Abutilon theophrasti (ABUTH); assay: Pre-emergence herbicidal action against ABUTH; conditions: Dosage column 320 g/ha (title prints 3200 g/ha); scored visually after about 3 weeks; 100% = plants have died
Method in brief: as §3

[12] = test system: Verconica persica (VERPE); assay: Pre-emergence herbicidal action against VERPE; conditions: dosage 320 g/ha
Method in brief: as §3

Zea mays (ZEAMX) [13] = conditions: pre-emergence, 80 g/ha, crop plant compatibility, in comparison to untreated controls
Method in brief: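 Scoring: visual, % of untreated control, about 3 weeks after a pre-emergence application to the soil surface. Application used WP or EC formulations diluted in water with 0.5% additive at 600 l/ha; dosage levels are marked by suffixes a, b and c.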

[14] = test system: Echinochloa crus-galli (ECHCG); assay: Post-emergence herbicidal action against ECHCG
Method in brief: as §1

[15] = test system: Matricaria inodora (MATIN); assay: Pre-emergence herbicidal action against MATIN
Method in brief: as §3

[16] = test system: Abutilon theophrasti (ABUTH); assay: Post-emergence herbicidal action against ABUTH; conditions: 80 g/ha, visual rating about 3 weeks after treatment vs untreated controls (100% = plants have died, 0% = like control plants)
Method in brief: as §1

[17] = test system: Amaranthus retroflexus (AMARE); assay: Post-emergence herbicidal action against AMARE; conditions: 80 g/ha, visual rating about 3 weeks after treatment vs untreated controls (100% = plants have died, 0% = like control plants)
Method in brief: as §1

[18] = test system: Alopecurus myosuroides (ALOMY); assay: Pre-emergence herbicidal action against ALOMY; conditions: scored visually after about 3 weeks, 100% = plants have died
Method in brief: as §3

Viola tricolor (VIOTR) [19] = assay: Pre-emergence herbicidal action against VIOTR
Method in brief: as §3

Avena fatua (AVEFA) [20] = assay: Pre-emergence herbicidal action against AVEFA; conditions: 320 g/ha, visual scoring after about 3 weeks vs untreated controls
Method in brief: as §3

[21] = test system: Polygonum convolvulus (POLCO); assay: Pre-emergence herbicidal action against POLCO
Method in brief: as §3

[22] = test system: Polygonum convolvulus (POLCO); assay: Post-emergence herbicidal action against POLCO
Method in brief: as §1

[23] = test system: Echinochloa crus-galli (ECHCG); assay: Pre-emergence herbicidal action against ECHCG
Method in brief: as §3

[24] = test system: Pharbitis purpurea (PHBPU); assay: Post-emergence herbicidal action against PHBPU
Method in brief: as §1

Avena fatua (AVEFA) [25] = assay: Post-emergence herbicidal action against AVEFA; conditions: 320 g/ha, visual rating about 3 weeks after treatment
Method in brief: as §1

Lolium rigidum (LOLRI) [26] = assay: Post-emergence herbicidal action against LOLRI
Method in brief: as §1

[27] = test system: Matricaria inodora (MATIN); assay: Post-emergence herbicidal action against MATIN; conditions: dosage 320 g/ha
Method in brief: as §1

[28] = 80 g/ha, visual scoring after about 3 weeks vs untreated controls

CN(C)S(=O)(=O)NC(=O)COc1nn(-c2ncccc2F)c(-c2ccc(F)nc2)c1Br [Example I-36]
Post-emergence action against VIOTR in % (Viola tricolor (VIOTR) [1]; 80 g/ha): 90%
Post-emergence action against ORYSA in % (Oryza sativa (ORYSA); 20 g/ha, effect vs untreated controls): 0%
Post-emergence action against ORYSA in % (Oryza sativa (ORYSA); 80 g/ha, effect in comparison to untreated controls): 0%
Post-emergence action against ZEAMX in % (crop plant compatibility) (Zea mays (ZEAMX) [2]): 20%
Post-emergence action against SETVI in % (Setaria viridis (SETVI) [3]; dosage 80 g/ha): 80%
Pre-emergence action against SETVI in % (Setaria viridis (SETVI) [4]; dosage 80 g/ha): 100%
Pre-emergence action against SETVI in % (Setaria viridis (SETVI) [4]; dosage 320 g/ha): 100%
Pre-emergence action against PHBPU in % ([5]; dosage 320 g/ha): 100%
Post-emergence action against ALOMY in % [6]: 90%
Pre-emergence action against DIGSA in % [7, 28]: 100%
Pre-emergence action against DIGSA in % ([7]; dosage 320 g/ha): 100%
Post-emergence action against DIGSA in % ([8]; 80 g/ha): 90%
Pre-emergence action against AMARE in % ([9]; 320 g/ha): 100%
Pre-emergence action against LOLRI in % (Lolium rigidum (LOLRI) [10]; dosage 320 g/ha): 100%
Pre-emergence action against ABUTH [11]: 80%
Pre-emergence action against VERPE in % [12]: 100%
Pre-emergence action against ZEAMX in % (Zea mays (ZEAMX) [13]): 0%
Post-emergence action against ECHCG in % ([14]; dosage 80 g/ha): 90%
Pre-emergence action against MATIN in % ([15]; dosage 320 g/ha): 100%
Post-emergence action against ABUTH in % [16]: 80%
Post-emergence action against AMARE in % [17]: 80%
Pre-emergence action against ALOMY ([18]; 80 g/ha): 100%
Pre-emergence action against ALOMY ([18]; 320 g/ha): 100%
Pre-emergence action against VIOTR in % (Viola tricolor (VIOTR) [19]; 320 g/ha, Viola tricolor): 100%
Pre-emergence action against VIOTR in % (Viola tricolor (VIOTR) [19]; dosage 80 g/ha): 100%
Pre-emergence action against AVEFA in % (Avena fatua (AVEFA) [20]): 90%
Pre-emergence action against POLCO in % ([21]; dosage 80 g/ha): 80%
Pre-emergence action against POLCO in % ([21]; dosage 320 g/ha): 90%
Post-emergence action against POLCO in % ([22]; dosage 80 g/ha): 80%
Pre-emergence action against ECHCG in % ([23]; dosage 320 g/ha): 100%
Post-emergence action against PHBPU in % ([24]; dosage 80 g/ha): 80%

COC(=O)[C@@H](C)Oc1nn(-c2nc(F)ccc2F)c(-c2cncc(F)c2)c1Cl [Example I-154]
Post-emergence action against VIOTR in % (Viola tricolor (VIOTR) [1]; 320 g/ha): 80%
Post-emergence action against SETVI in % (Setaria viridis (SETVI) [3]; dosage 320 g/ha): 80%
Pre-emergence action against SETVI in % (Setaria viridis (SETVI) [4]; dosage 80 g/ha): 90%
Pre-emergence action against SETVI in % (Setaria viridis (SETVI) [4]; dosage 320 g/ha): 100%
Pre-emergence action against PHBPU in % ([5]; dosage 80 g/ha): 80%
Pre-emergence action against PHBPU in % ([5]; dosage 320 g/ha): 90%
Pre-emergence action against DIGSA in % [7, 28]: 90%
Pre-emergence action against DIGSA in % ([7]; dosage 320 g/ha): 100%
Post-emergence action against DIGSA in % ([8]; 80 g/ha): 80%
Post-emergence action against DIGSA in % ([8]; 320 g/ha): 90%
Pre-emergence action against AMARE in % ([9]; 80 g/ha): 90%
Pre-emergence action against AMARE in % ([9]; 320 g/ha): 100%
Pre-emergence action against LOLRI in % (Lolium rigidum (LOLRI) [10]; dosage 80 g/ha): 90%
Pre-emergence action against LOLRI in % (Lolium rigidum (LOLRI) [10]; dosage 320 g/ha): 100%
Pre-emergence action against ABUTH [11]: 90%
Pre-emergence action against VERPE in % [12]: 100%
Post-emergence action against ECHCG in % ([14]; dosage 80 g/ha): 80%
Post-emergence action against ECHCG in % ([14]; dosage 320 g/ha): 80%
Pre-emergence action against MATIN in % ([15]; dosage 80 g/ha): 90%
Pre-emergence action against MATIN in % ([15]; dosage 320 g/ha): 100%
Post-emergence action against AVEFA in % (Avena fatua (AVEFA) [25]): 80%
Pre-emergence action against ALOMY ([18]; 80 g/ha): 80%
Pre-emergence action against ALOMY ([18]; 320 g/ha): 90%
Pre-emergence action against VIOTR in % (Viola tricolor (VIOTR) [19]; 320 g/ha, Viola tricolor): 100%
Pre-emergence action against VIOTR in % (Viola tricolor (VIOTR) [19]; dosage 80 g/ha): 100%
Pre-emergence action against AVEFA in % (Avena fatua (AVEFA) [20]): 80%
Pre-emergence action against POLCO in % ([21]; dosage 320 g/ha): 90%
Post-emergence action against POLCO in % ([22]; dosage 320 g/ha): 80%
Pre-emergence action against ECHCG in % ([23]; dosage 80 g/ha): 90%
Pre-emergence action against ECHCG in % ([23]; dosage 320 g/ha): 100%
Post-emergence action against LOLRI in % (Lolium rigidum (LOLRI) [26]; dosage 80 g/ha): 80%
Post-emergence action against LOLRI in % (Lolium rigidum (LOLRI) [26]; dosage 320 g/ha): 90%
Post-emergence action against MATIN in % [27]: 80%
Post-emergence action against PHBPU in % ([24]; dosage 80 g/ha): 80%
Post-emergence action against PHBPU in % ([24]; dosage 320 g/ha): 90%
